Experimental data from publication PMC9883482, “TPX2 enhances the transcription factor activation of PXR and enhances the resistance of hepatocellular carcinoma cells to antitumor drugs” (Cell Death & Disease, 2023).
Like-named read-outs stand apart in the source and are kept apart here.

Key:
[1] = test system: HCC subcutaneous tumor tissues; assay: Sorafenib retention in HCC subcutaneous tumor tissues, LC-MS/MS; type: in vivo, nude mice; conditions: 72-h time point after intratumoral injection
Procedure: (§1) For HCC subcutaneous tumor tissue, HCC cells were first cultured for transfection after which the cells were inoculated subcutaneously into nude mice to form tumor tissue. […] The HCC tumor tissues were collected at each time point described previously with the addition of 72 and 96 h.
(§2) During the extraction of sorafenib samples from HCC tissue samples, the tissue samples were shredded to form tissue micro-blocks and then ground with liquid nitrogen. The samples ground with liquid nitrogen were mixed with PBS and then mixed with the organic solvent acetonitrile at a ratio of 1:1. The samples were then crushed and extracted for about 30 min using vortex shaking. After that, the samples were centrifuged at 12,000 rpm and at 4 °C for about 15 to 20 min. At this time, the sample was separated into cell debris and organic and water phases.
(§3) S transition pair was detected using LC–MS/MS: (1) the parent ion was 465 Da and (2) the product ion was 252 Da.

[2] = Sorafenib metabolism/clearance in cultured cells, LC-MS/MS; type: in vitro ADME; conditions: human
Procedure: (§4) After incubation with sorafenib was complete, the medium containing sorafenib was discarded and replaced with normal DMEM + FBS for continuous cultures. Cell samples were collected at each time point starting at 0 (when the cell samples were collected immediately after the incubation step/baseline) followed by 4, 8, 12, 24, and 48 h.
(§5) For sorafenib-treated samples in cellular experiments, sorafenib processing and extraction of the samples were performed. HCC cell samples were re-suspended in PBS after which the organic solvent acetonitrile at a ratio of 1:1 was added. The samples were then crushed and extracted for about 30 min with vortex shaking. After that step, the samples were centrifuged at 12,000 rpm at 4 °C for about 15 to 20 min. At this time, the samples were separated into cell debris, organic, and water phases. The collected organic phase contained the sample of sorafenib in acetonitrile.
as §3
(§6) All statistical analyses in the presence work were performed using the GraphPad 8.0 (GraphPad Software Corporation, Armonk, NY, USA). […] For the survival analysis data, the survival curves were analyzed by the log-rank (Mantel–Cox) test to detect the P-value of the survival curve, the median survival time, and the 95% confidence interval (CI). For the co-relationship analysis, the data were analyzed by linear regression to determine the overall trend of a group of data points. […] If the slope was positive, the horizontal coordinate was positively related to the vertical coordinate, and if the slope was negative, the horizontal coordinate was negatively related to the vertical coordinate. For the multi-grouped data, the ordinary one-way analysis of variance (ANOVA) and multiple comparison methods were used. An ANOVA was used to examine whether any difference between groups could be detected. The multiple comparisons (t-test) was used to detect differences between pairs of data.

[3] = test system: subcutaneous tumor tissue formed by MHCC97-L cells; assay: Sorafenib metabolism/clearance in subcutaneous tumor tissues, LC-MS/MS; type: in vivo, nude mice; conditions: MHCC97-L subcutaneous tumour tissues, control group (rifampicin experiment)
Procedure: as §1, §2, §3, §6

[4] = as above; type: in vivo, nude mice; conditions: nude, mouse, read-out: t1/2 values (converted)
Procedure: as §1, §2, §3, §6

[5] = Sorafenib metabolism/clearance in LS180 cells; type: in vitro ADME; conditions: human, read-out: t1/2 values (converted)
[6] = test system: HCC cells (MHCC97-H, MHCC97-L, or HepG2); assay: Sorafenib retention in cultured HCC cells, LC-MS/MS; type: in vitro ADME, human; conditions: 48-h time point after 1 μmol/L incubation
Procedure: as §4, §5, §3

advanced HCC patients = assay: Prognosis of advanced HCC patients who received sorafenib, by TPX2 mRNA expression; type: in vivo, human; conditions: advanced HCC patients on sorafenib
Procedure: The human-related experimental materials involved in this study consisted of mainly cDNA samples extracted from patient-derived HCC clinical specimens or the HCC cell lines. The cDNA samples were stored in a –80 °C refrigerator and stored in aliquots. […] Baseline information was detailed in our previous publications. The cell lines use in this study included various HCC cell lines (HepG2 [a HCC cell line], MHCC97-H [a highly aggressive HCC cell line], and MHCC97-L [a lowly aggressive HCC cell line]) and a PXR positive colorectal cancer line LS180. These cells were purchased from the National Infrastructure of Cell Resources of the Chinese Academy of Medical Sciences/China Union Medical College and descripted in our previous work.
All statistical analyses in the presence work were performed using the GraphPad 8.0 (GraphPad Software Corporation, Armonk, NY, USA). […] For the co-relationship analysis, the data were analyzed by linear regression to determine the overall trend of a group of data points. […] If the slope was positive, the horizontal coordinate was positively related to the vertical coordinate, and if the slope was negative, the horizontal coordinate was negatively related to the vertical coordinate. […] An ANOVA was used to examine whether any difference between groups could be detected. […]

With CNC(=O)c1cc(Oc2ccc(NC(=O)Nc3ccc(Cl)c(C(F)(F)F)c3)cc2)ccn1 [sorafenib] as the compound, how does the “metabolism and elimination in HCC tissues” value [1] read?
Its value is “almost completely metabolized and eliminated”.

And the half-life at 1 μmol/L ([2]; HepG2 cells, Control, median (95% CI), read-out: t1/2 values (converted))?
Its half-life at 1 μmol/L is 1130 min.

What about the half-life at 1 μmol/L ([2]; HepG2 cells, TPX2 overexpression, median (95% CI), read-out: t1/2 values (converted)) of the same compound?
Its half-life at 1 μmol/L is 822 min.

And the half-life at 1 μmol/L ([2]; HepG2 cells, siTPX2, read-out: t1/2 values (converted))?
Its half-life at 1 μmol/L is > 1440 min.

What about the half-life at 1 μmol/L ([2]; MHCC97-H cells, Control, median (95% CI), read-out: t1/2 values (converted)) of the same compound?
Its half-life at 1 μmol/L is 933 min.

And the half-life at 1 μmol/L ([2]; MHCC97-H cells, siTPX2, median (95% CI), read-out: t1/2 values (converted))?
Its half-life at 1 μmol/L is 2200 min.

And the half-life at 1 μmol/L ([2]; MHCC97-L cells, Control, median (95% CI), read-out: t1/2 values (converted))?
The half-life at 1 μmol/L was 1120 min.

And the half-life at 1 μmol/L ([2]; MHCC97-L cells, TPX2 overexpression, median (95% CI), read-out: t1/2 values (converted))?
Its half-life at 1 μmol/L is 715 min.

What about the t1/2 values [3] of the same compound?
The t1/2 values was 29.70 [21.38–36.75].

And the half-life ([4]; subcutaneous tumor tissue formed by HepG2 cells, Control, median (95% CI))?
Its half-life is 1760 min.

And the half-life ([4]; subcutaneous tumor tissue formed by HepG2 cells, TPX2 overexpression, median (95% CI))?
Its half-life is 1110 min.

And the half-life ([4]; subcutaneous tumor tissue formed by HepG2 cells, siTPX2, median (95% CI))?
Its half-life is 2530 min.

What about the half-life ([4]; subcutaneous tumor tissue formed by MHCC97-H cells, Control, median (95% CI)) of the same compound?
The half-life was 1180 min.

What about the half-life ([4]; subcutaneous tumor tissue formed by MHCC97-H cells, siTPX2, median (95% CI)) of the same compound?
Its half-life is 1650 min.

And the half-life ([4]; subcutaneous tumor tissue formed by MHCC97-L cells, MHCC97-L tumor tissues, Control, median (95% CI))?
Its half-life is 1700 min.

What about the half-life ([4]; subcutaneous tumor tissue formed by MHCC97-L cells, MHCC97-L tumor tissues, TPX2 overexpression, median (95% CI)) of the same compound?
Its half-life is 809 min.

And the half-life ([4]; subcutaneous tumor tissue formed by MHCC97-L cells, other: injected directly into the tumor tissue, MHCC97-L subcutaneous tumour tissues, TPX2 overexpression + rifampicin 5 mg/kg oral)?
The half-life was 682 min.

And the half-life ([4]; subcutaneous tumor tissue formed by MHCC97-L cells, other: injected directly into the tumor tissue, MHCC97-L subcutaneous tumour tissues, TPX2 overexpression group (rifampicin experiment))?
Its half-life is 841 min.

What about the half-life at 1 μmol/L ([5]; TPX2 knockdown) of the same compound?
Its half-life at 1 μmol/L is 1960 min.

And the half-life at 1 μmol/L ([5]; TPX2 overexpression)?
The half-life at 1 μmol/L was 722 min.

What about the half-life at 1 μmol/L ([5]; control of TPX2 knockdown experiment) of the same compound?
The half-life at 1 μmol/L was 1310 min.

And the half-life at 1 μmol/L ([5]; control of TPX2 overexpression experiment)?
Its half-life at 1 μmol/L is 1280 min.

What about the “metabolism and elimination in cultured HCC cells” value [6] of the same compound?
The value was “almost completely metabolized and eliminated”.

What about the TTP median value (advanced HCC patients; TPX2 mRNA High (n = 26)) of the same compound?
Its TTP median value is 9.0 months.

And the OS median value (advanced HCC patients; TPX2 mRNA Low (n = 26))?
The OS median value was 16.0 months.
